Columns and labels:
human CTPS1 [1] = molecular target: T1, human CTPS1 (Homo sapiens, UniProt P17812); experiment: RapidFire/MS-based enzyme selectivity assay (human CTPS1 versus CTPS2), CTPS1 isoform; assay type: biochemical
T1 construct: FLAG (with GG linker); His8 (with GG linker); purchased Proteros biostructures GmbH
T1 sequence (P17812 1-591): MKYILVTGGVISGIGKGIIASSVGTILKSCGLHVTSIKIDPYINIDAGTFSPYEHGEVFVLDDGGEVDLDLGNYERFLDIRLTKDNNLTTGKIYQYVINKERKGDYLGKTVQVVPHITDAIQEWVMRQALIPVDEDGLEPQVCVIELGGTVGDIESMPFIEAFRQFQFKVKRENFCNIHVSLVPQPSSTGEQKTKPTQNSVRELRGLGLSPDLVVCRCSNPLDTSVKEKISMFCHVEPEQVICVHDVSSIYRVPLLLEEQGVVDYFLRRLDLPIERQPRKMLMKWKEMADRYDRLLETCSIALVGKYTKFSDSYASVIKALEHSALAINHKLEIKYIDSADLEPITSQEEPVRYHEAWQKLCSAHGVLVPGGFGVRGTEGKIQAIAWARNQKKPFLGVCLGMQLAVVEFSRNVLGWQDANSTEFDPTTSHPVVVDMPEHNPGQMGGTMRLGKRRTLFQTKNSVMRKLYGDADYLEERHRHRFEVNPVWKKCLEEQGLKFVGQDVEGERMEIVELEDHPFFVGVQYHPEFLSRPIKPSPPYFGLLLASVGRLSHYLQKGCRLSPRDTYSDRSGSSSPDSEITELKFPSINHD
Description: Human CTPS1 Versus CTPS2 Selectivity Assessment by RapidFire/MS Analysis.
The enzyme inhibitory activities against each target isoform of interest may be determined for the compounds of the invention using an optimised RapidFire high-throughput mass spectrometry (RF/MS) assay format. RF/MS assays for both human CTPS1 and CTPS2 may be performed in assay buffer consisting of 50 mM HEPES (Merck), 20 mM MgCl2, 5 mM KCl, 1 mM DTT, 0.01% Tween-20, pH to 8.0 accordingly. Human full-length active C-terminal FLAG-His-tag CTPS1 (UniProtKB—P17812, CTPS1[1-591]-[…] (CTPS1[1-591]-SEQ ID NO: 1)) may be obtained from Proteros biostructures GmbH. Human full length active C-terminal FLAG-His-Avi tagged CTPS2 (UniProtKB—Q9NRF8, CTPS2 [1-586]-[…] (CTPS2 [1-586]—SEQ ID NO: 2)) may be obtained from Harker Bio.
Human CTPS (1 or 2) protein may be prepared in 1× assay buffer to the final working protein concentration required for the reaction. A 2 uL volume per well of 2×CTPS (1 or 2) protein may be mixed with 40 nL of compound using acoustic (ECHO) delivery and incubated for 10 minutes at 25° C. Each isoform enzymatic reaction may be subsequently initiated by addition of 2 uL per well of a 2× substrate mix in assay buffer. For hCTPS1: ATP (0.3 mM), UTP (0.2 mM), GTP (0.07 mM) and L-glutamine (0.1 mM). For hCTPS2: ATP (0.1 mM), UTP (0.04 mM), GTP (0.03 mM) and L-glutamine (0.1 mM). Each mixture may be incubated for an appropriate amount of time per isoform within the determined linear phase of the reaction at 25° C. A 80 uL volume of stop solution (1% formic acid with 0.5 uM ^13C9-^15N3-CTP in H2O) may be added and the plate immediately heat-sealed and centrifuged for 10 minutes at 4,000 rpm. Following centrifugation, plates may be loaded onto the Agilent RapidFire microfluidic solid phase extraction system coupled to an API4000 triple quadrupole mass spectrometer (RF/MS) for analysis.
In all cases, the enzyme converts UTP to CTP. Highly specific and sensitive multiple reaction monitoring (MRM) MS methods may be optimised for the detection of the enzymatic reaction product, CTP, and the stable isotope labelled product standard ^13C9-^15N3-CTP. Readout for data analysis may be calculated as the ratio between the peak area of the product CTP and the internal standard ^13C9-^15N3-CTP. For data reporting, the following equation may be used:
(R=ratio/readout, P=product signal area, IS=internal standard signal area)
For each screening plate, the means of the negative (DMSO) and positive control values were used for the calculation of the respective assay window (S/B) and Z′ values. The median of the respective control values was used for calculation of percent inhibition according to the following equation:
(I=Inhibition, Rneq=median of negative control readout values, Rpos=median of positive control readout values, Rsample=sample readout value)
Percentage inhibition was then plotted against compound concentration, and the 50% inhibitory concentration (IC50) was determined from the resultant concentration-response curve.
Fold selectivity between CTPS1 and CTPS2 was subsequently calculated according to the following equation: […]

human CTPS1 [2] = molecular target: T1, human CTPS1; experiment: Human CTPS1 enzyme inhibition, ADP-Glo Max assay; assay type: biochemical; settings: ADP-Glo Max assay; Table 10; read-out: Human CTPS1 Enzyme Inhibition, IC50 grouped by potency range (CTPS1)
In short: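 Enzyme preincubated with compound for 10 min at 25 °C in 50 mM Tris pH 8.0, 10 mM MgCl2, 0.01% Tween-20, 2 mM L-cysteine. ATP-to-ADP conversion detected by ADP-Glo Max luminescence after 60 min depletion and 60 min development steps. Percentage inhibition calculated per concentration.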

[3] = Table 16, human CTPS1 over human CTPS2, RapidFire/MS IC50 values
[4] = RapidFire/MS IC50 values of CTPS1 and CTPS2, Table 15

| SMILES | IC50 (human CTPS1 [2]) [µM] | further results |
| --- | --- | --- |
| CC(C)Oc1cncc(-c2ccc(C(=O)NC(C)(C)c3csc(NS(=O)(=O)C4CC4)n3)c(F)c2)n1 [R43, N-(2-(2-(cyclopropanesulfonamido)thiazol-4-yl)propan-2-yl)-2-fluoro-4-(6-isopropoxypyrazin-2-yl)benzamide] | – | Selectivity (fold selectivity between CTPS1 and CTPS2) (human CTPS1 [1]; [3]): ++ (>30-60 fold (++)) |
| CC(C)(NC(=O)c1ccc(-c2cncc(C(F)(F)F)n2)cc1)c1cncc(NS(=O)(=O)C2CC2)n1 [P222, N-(2-(6-(cyclopropanesulfonamido)pyrazin-2-yl)propan-2-yl)-4-(6-(trifluoromethyl)pyrazin-2-yl)benzamide] | – | Selectivity (fold selectivity between CTPS1 and CTPS2) (human CTPS1 [1]; [4]): + (2-30 fold (+)) |
| CCOc1cncc(-c2ccc(NC(=O)C(CC)c3ccnc(NS(=O)(=O)C4CC4)n3)cc2)n1 (stereo not shown) [P105, 2-(2-(cyclopropanesulfonamido)pyrimidin-4-yl)-N-(4-(6-ethoxypyrazin-2-yl)phenyl)butanamide] | – | Selectivity (fold selectivity between CTPS1 and CTPS2) (human CTPS1 [1]; [4]): ++ (>30-60 fold (++)) |
| CCOc1cncc(-c2ccc(NC(=O)C(CCOC)c3ccnc(NS(=O)(=O)C4CC4)n3)cc2)n1 (stereo not shown) [P110, 2-(2-(cyclopropanesulfonamido)pyrimidin-4-yl)-N-(4-(9-ethoxypyrazin-2-yl)phenyl)-4-methoxypbutanamide] | – | Selectivity (fold selectivity between CTPS1 and CTPS2) (human CTPS1 [1]; [4]): ++ (>30-60 fold (++)) |
| CCOc1cncc(-c2ccc(NC(=O)C(OC)c3ccnc(NS(=O)(=O)C4CC4)n3)cc2)n1 (stereo not shown) [P164, 2-(2-(cyclopropanesulfonamido)pyrimidin-4-yl)-N-(4-(6-ethoxypyrazin-2-yl)phenyl)-2-methoxyacetamide] | – | Selectivity (fold selectivity between CTPS1 and CTPS2) (human CTPS1 [1]; [4]): + (2-30 fold (+)) |
| CCOc1cncc(-c2ccc(C(=O)NC(CC)c3csc(NS(=O)(=O)C4CC4)n3)c(F)c2)n1 (single isomer, unassigned) [R70, N-(1-(2-(cyclopropanesulfon-amido)thiazol-4-yl)propyl)-4-(6-ethoxypyrazin-2-yl)-2-fluorobenzamide] | – | Selectivity (fold selectivity between CTPS1 and CTPS2) (human CTPS1 [1]; [3]): +++ (>60 fold (+++)) |
| CCOc1cncc(-c2ccc(NC(=O)C(C)(OC)c3cncc(NS(=O)(=O)C4CC4)n3)nc2)n1 (single isomer, unassigned) [P205b, 2-(6-(cyclopropanesulfonamido)pyrazin-2-yl)-N-(5-(6-ethoxypyrazin-2-yl)pyridin-2-yl)-2-methoxypropanamide] | – | Selectivity (fold selectivity between CTPS1 and CTPS2) (human CTPS1 [1]; [4]): ++ (>30-60 fold (++)) |
| CCOc1cncc(-c2ccc(NC(=O)C(C)(C)c3csc(NS(=O)(=O)C4CC4)n3)c(F)c2)c1 [T125, 2-(2-(cyclopropanesulfonamido)thiazol-4-yl)-N-(4-(5-ethoxypyridin-3-yl)-2-fluorophenyl)-2-methylpropanamide] | < 0.1 | – |
| CC(C)(C(=O)Nc1ccc(-c2cccc(N3CCOCC3)c2)cn1)c1csc(NS(=O)(=O)C2CC2)n1 [T238, 2-(2-(cyclopropanesulfonamido)thiazol-4-yl)-2-methyl-N-(5-(3-morpholinophenyl)pyridin-2-yl)propanamide] | 1 to 10 | – |
| CC(C)(C(=O)Nc1ccc(-c2cccnc2)cc1)c1csc(NS(=O)(=O)C2(C)CC2)n1 [T299, 2-methyl-2-(2-((1-methylcyclopropane)-1-sulfonamido)thiazol-4-yl)-N-(4-(pyridin-3-yl)phenyl)propanamide] | 0.1 to 1 | – |
| CC(C)(C(=O)Nc1ccc(-c2cncc(C(F)(F)F)n2)cc1)c1csc(NS(=O)(=O)C2(C)CC2)n1 [T302, 2-methyl-2-(2-((1-methylcyclopropane)-1-sulfonamido)thiazol-4-yl)-N-(4-(6-(trifluoromethyl)pyrazin-2-yl)phenyl)propanamide] | 0.1 to 1 | – |
| CCCOc1cncc(-c2ccc(NC(=O)C(CC)(CC)c3csc(NS(=O)(=O)C4CC4)n3)cc2)n1 [T123, 2-(2-(cyclopropanesulfonamido)thiazol-4-yl)-2-ethyl-N-(4-(6-propoxypyrazin-2-yl)phenyl)butanamide] | < 0.1 | – |
| CC(C)(C(=O)Nc1ncc(-c2cncc(F)c2)cn1)c1csc(NS(=O)(=O)C2CC2)n1 [T293, 2-(2-(cyclopropanesulfonamido)thiazol-4-yl)-N-(5-(5-fluoropyridin-3-yl)pyrimidin-2-yl)-2-methylpropanamide] | 0.1 to 1 | – |

Further lines, with some results ahead:

| IC50 (human CTPS1 [2]) [µM] | SMILES | further results |
| --- | --- | --- |
| 0.1 to 1 | CC(C)(C(=O)Nc1ccc(-c2ccccc2)cn1)c1csc(NS(=O)(=O)C2CC2)n1 [T63, 2-(2-(cyclopropanesulfonamido)thiazol-4-yl)-2-methyl-N-(5-phenylpyridin-2-yl)propanamide] | – |
| 0.1 to 1 | Cc1c(Cl)cncc1-c1ccc(NC(=O)C(C)(C)c2csc(NS(=O)(=O)C3CC3)n2)cc1 [T428, N-(4-(5-chloro-4-methylpyridin-3-yl)phenyl)-2-(2-(cyclopropanesulfonamido)thiazol-4-yl)-2-methylpropanamide] | – |
| 0.1 to 1 | O=C(Cc1csc(NS(=O)(=O)C2CC2)n1)Nc1ccc(-c2cccnc2)nc1 [T67, N-([2,3′-bipyridin]-5-yl)-2-(2-(cyclopropanesulfonamido)thiazol-4-yl)acetamide] | – |
| < 0.1 | CCCOc1cncc(-c2ccc(NC(=O)C(C)(C)c3csc(NS(=O)(=O)C4CC4)n3)cc2)c1 [T157, 2-(2-(cyclopropanesulfonamido)thiazol-4-yl)-2-methyl-N-(4-(5-propoxypyridin-3-yl)phenyl)propanamide] | – |
| 0.1 to 1 | O=C(Cc1csc(NS(=O)(=O)C2CC2)n1)Nc1ccc(-c2cccnc2)c(F)c1F [T188, 2-(2-(cyclopropanesulfonamido)thiazol-4-yl)-N-(2,3-difluoro-4-(pyridin-3-yl)phenyl)acetamide] | – |
| 0.1 to 1 | O=C(Cc1csc(NS(=O)(=O)C2CC2)n1)Nc1ccc(-c2cccnc2)cc1F [T216, 2-(2-(cyclopropanesulfonamido)thiazol-4-yl)-N-(2-fluoro-4-(pyridin-3-yl)phenyl)acetamide] | – |
| 0.1 to 1 | CC(=O)Nc1cncc(-c2ccc(NC(=O)C(C)(C)c3csc(NS(=O)(=O)C4CC4)n3)cc2)n1 [T281, N-(4-(6-acetamidopyrazin-2-yl)phenyl)-2-(2-(cyclopropanesulfonamido)thiazol-4-yl)-2-methylpropanamide] | – |
| < 0.1 | CCC(C(=O)Nc1ccc(-c2cncc(C(F)(F)F)n2)cc1)c1csc(NS(=O)(=O)C2CC2)n1 (single isomer, unassigned) [T106, 2-(2-(cyclopropanesulfonamido)thiazol-4-yl)-N-(4-(6-(trifluoromethyl)pyrazin-2-yl)phenyl)butanamide] | – |
| 0.1 to 1 | CCC(CC)(C(=O)Nc1ccc(-c2cccnc2)cn1)c1csc(NS(=O)(=O)C2CC2)n1 [T144, N-([3,3′-bipyridin]-6-yl)-2-(2-(cyclopropanesulfonamido)thiazol-4-yl)-2-ethylbutanamide] | – |
